Experiments:
Surinam grass = assay: Test F preemergence; assay type: in vivo, Brachiaria decumbens
Outline: (§1)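 Formulated in surfactant-containing non-phytotoxic solvent; pre: applied to seeded silt loam; post: applied to plants 2–18 cm (1–4 leaves); greenhouse 14–21 d; visual 0–100 rating vs controls.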

corn = assay: Test F preemergence; assay type: in vivo, Zea mays
Outline: as §1

deadnettle = assay: Test D preemergence; assay type: in vivo, Lamium amplexicaule; conditions: scale 0 to 100
Excerpt: (§2) Seeds of plant species selected from bluegrass (annual bluegrass, Poa annua), blackgrass (Alopecurus myosuroides), canarygrass (littleseed canarygrass, Phalaris minor), chickweed (common chickweed, Stellaria media), galium (catchweed bedstraw, Galium aparine), bromegrass, downy (downy bromegrass, Bromus tectorum), field poppy (Papaver rhoeas), field violet (Viola arvensis), foxtail, green (green foxtail, Setaria viridis), deadnettle (henbit deadnettle, Lamium amplexicaule), ryegrass, Italian (Italian ryegrass, Lolium multiflorum), kochia (Kochia scoparia), lambsquarters (Chenopodium album), oilseed rape (Brassica napus), pigweed (redroot pigweed, Amaranthus retroflexus), chamomile (scentless chamomile, Matricaria inodora), speedwell (bird's-eye speedwell, Veronica persica), barley, spring (spring barley, Hordeum vulgare), wheat, spring (spring wheat, Triticum aestivum), buckwheat, wild (wild buckwheat, Polygonum convolvulus), mustard, wild (wild mustard, Sinapis arvensis), oat, wild (wild oat, Avena fatua), radish, wild (wild radish, Raphanus raphanistrum), windgrass (Apera spica-venti), Russian thistle (Salsola kali), barley, winter (winter barley, Hordeum vulgare), and wheat, winter (winter wheat, Triticum aestivum) were planted into a silt loam soil and treated preemergence with test chemicals formulated in a non-phytotoxic solvent mixture which included a surfactant.
(§3) At the same time, these species were planted in pots containing Redi-Earth® planting medium (Scotts Company, 14111 Scottslawn Road, Marysville, Ohio 43041) comprising spaghnum peat moss, vermiculite, wetting agent and starter nutrients and treated with postemergence applications of the test chemicals formulated in the same manner. Plants ranged in height from 2 to 18 cm (1- to 4-leaf stage). Treated plants and controls were maintained in a controlled growth environment for 14 to 21 days after which time all species were compared to controls and visually evaluated. Plant response ratings, summarized in Table D, are based on a scale of 0 to 100 where 0 is no effect and 100 is complete control. A dash (-) response means no test result.

fall panicum = assay: Test F preemergence; assay type: in vivo, Panicum dichotomiflorum
Outline: as §1

barnyardgrass = assay: Test F preemergence; assay type: in vivo, Echinochloa crus-galli
Outline: as §1

barley, winter = assay: Test D preemergence; assay type: in vivo, Hordeum vulgare; conditions: scale 0 to 100
Excerpt: as §2, §3

barley, spring = assay: Test D preemergence; assay type: in vivo, Hordeum vulgare; conditions: scale 0 to 100
Excerpt: as §2, §3

giant foxtail = assay: Test F preemergence; assay type: in vivo, Setaria faberii
Excerpt: (§4) Seeds of plant species selected from corn (Zea mays), soybean (Glycine max), velvetleaf (Abutilon theophrasti), lambsquarters (Chenopodium album), wild poinsettia (Euphorbia heterophylla), pigweed, palmer (palmer pigweed, Amaranthus palmeri), common waterhemp (Amaranthus rudis), surinam grass (Brachiaria decumbens), large crabgrass (Digitaria sanguinalis), crabgrass, Brazil (Brazilian crabgrass, Digitaria horizontalis), fall panicum (Panicum dichotomiflorum), giant foxtail (Setaria faberii), green foxtail (Setaria viridis), goosegrass (Eleusine indica), johnsongrass (Sorghum halepense), common ragweed (Ambrosia elation), barnyardgrass (Echinochloa crus-galli), southern sandbur (Cenchrus echinatus), arrowleaf sida (Sida rhombifolia), Italian ryegrass (Lolium multiflorum), dayflower, VA (Virginia (VA) dayflower, Commelina virginica), field bindweed (Convolvulus arvensis), cocklebur (common cocklebur, Xanthium strumarium), morningglory (Ipomoea coccinea), nightshade (eastern black nightshade, Solanum ptycanthum), kochia (Kochia scoparia), yellow nutsedge (Cyperus esculentus), and hairy beggarticks (Bidens pilosa), were planted into a silt loam soil and treated preemergence with test chemicals formulated in a non-phytotoxic solvent mixture which included a surfactant.
(§5) At the same time, plants from these crop and weed species and also horseweed (Canada horseweed, Conyza canadensis), smartweed (ladysthumb smartweed, Polygonum persicaria), waterhemp_RES1, (ALS & Triazine resistant common waterhemp, Amaranthus rudis), and waterhemp_RES2, (ALS & HPPD resistant common waterhemp, Amaranthus rudis) were treated with postemergence applications of test chemicals formulated in the same manner. Plants ranged in height from 2 to 18 cm for postemergence treatments (1- to 4-leaf stage). Treated plants and controls were maintained in a greenhouse for 14 to 21 days, after which time all species were compared to controls and visually evaluated. Plant response ratings, summarized in Table F, are based on a scale of 0 to 100 where 0 is no effect and 100 is complete control. A dash (-) response means no test result.

radish, wild = assay: Test D postemergence; assay type: in vivo, Raphanus raphanistrum; conditions: scale 0 to 100
Excerpt: as §2, §3

lambsquarters [1] = assay: Test F preemergence; assay type: in vivo, Chenopodium album
Excerpt: as §4, §5

lambsquarters [2] = assay: Test D preemergence; assay type: in vivo, Chenopodium album; conditions: scale 0 to 100
Excerpt: as §2, §3

pigweed = assay: Test D preemergence; assay type: in vivo, Amaranthus retroflexus; conditions: scale 0 to 100
Excerpt: as §2, §3

chickweed = assay: Test D postemergence; assay type: in vivo, Stellaria media; conditions: scale 0 to 100
Excerpt: as §2, §3

field bindweed = assay: Test F preemergence; assay type: in vivo, Convolvulus arvensis
Excerpt: as §4, §5

[3] = Preemergence, 31 g ai/ha, scale 0 to 100
[4] = Preemergence, 62 g ai/ha, scale 0 to 100
[5] = Preemergence, 125 g ai/ha, scale 0 to 100
[6] = preemergence, 8 g ai/ha, scale 0 to 100, 100 is complete control
[7] = preemergence, 16 g ai/ha, scale 0 to 100, 100 is complete control

Question: With `CCc1cc(C(=O)NCC(F)(F)F)nn1Cc1ccnc(C(F)(F)F)c1` [Compound 78, 5-ethyl-N-(2,2,2-trifluoroethyl)-1-[[(2-trifluoromethyl)-4-pyridinyl]methyl]-1H-pyrazole-3-carboxamide] as the molecule, how does the “Plant response rating, Surinam Grass” value (Surinam grass; [3]) read?
Answer: 50

Question: And the “Plant response rating, Surinam Grass” value (Surinam grass; [4])?
Answer: 75

Question: What about the “Plant response rating, Surinam Grass” value (Surinam grass; [5]) of the same molecule?
Answer: 100

Question: And the “Plant response rating, Surinam Grass” value (Surinam grass; [6])?
Answer: 20

Question: What about the “Plant response rating, Surinam Grass” value (Surinam grass; [7]) of the same molecule?
Answer: 20

Question: And the “Plant response rating, Corn” value (corn; [3])?
Answer: 20

Question: And the “Plant response rating, Corn” value (corn; [4])?
Answer: 65

Question: And the “Plant response rating, Corn” value (corn; [5])?
Answer: 70

Question: What about the “Plant response rating, Corn” value (corn; [6]) of the same molecule?
Answer: 0

Question: And the “Plant response rating, Corn” value (corn; [7])?
Answer: 10

Question: And the “Plant response rating, Deadnettle” value (deadnettle; 31 g ai/ha)?
Answer: 10

Question: And the “Plant response rating, Deadnettle” value (deadnettle; 62 g ai/ha)?
Answer: 10

Question: And the “Plant response rating, Deadnettle” value (deadnettle; 125 g ai/ha)?
Answer: 25

Question: What about the “Plant response rating, Deadnettle” value (deadnettle; 250 g ai/ha) of the same molecule?
Answer: 100

Question: And the “Plant response rating, Fall Panicum” value (fall panicum; [3])?
Answer: 90

Question: What about the “Plant response rating, Fall Panicum” value (fall panicum; [4]) of the same molecule?
Answer: 100

Question: And the “Plant response rating, Fall Panicum” value (fall panicum; [5])?
Answer: 100

Question: And the “Plant response rating, Fall Panicum” value (fall panicum; [6])?
Answer: 40

Question: And the “Plant response rating, Fall Panicum” value (fall panicum; [7])?
Answer: 70

Question: What about the “Plant response rating, Barnyardgrass” value (barnyardgrass; [3]) of the same molecule?
Answer: 35

Question: What about the “Plant response rating, Barnyardgrass” value (barnyardgrass; [4]) of the same molecule?
Answer: 98

Question: And the “Plant response rating, Barnyardgrass” value (barnyardgrass; [5])?
Answer: 100

Question: And the “Plant response rating, Barnyardgrass” value (barnyardgrass; [6])?
Answer: 0

Question: And the “Plant response rating, Barnyardgrass” value (barnyardgrass; [7])?
Answer: 25

Question: What about the “Plant response rating, Barley, Winter” value (barley, winter; 31 g ai/ha) of the same molecule?
Answer: 25

Question: And the “Plant response rating, Barley, Winter” value (barley, winter; 62 g ai/ha)?
Answer: 50

Question: What about the “Plant response rating, Barley, Winter” value (barley, winter; 125 g ai/ha) of the same molecule?
Answer: 65

Question: And the “Plant response rating, Barley, Winter” value (barley, winter; 250 g ai/ha)?
Answer: 95

Question: What about the “Plant response rating, Barley, Spring” value (barley, spring; 31 g ai/ha) of the same molecule?
Answer: 20

Question: What about the “Plant response rating, Barley, Spring” value (barley, spring; 62 g ai/ha) of the same molecule?
Answer: 65

Question: What about the “Plant response rating, Barley, Spring” value (barley, spring; 125 g ai/ha) of the same molecule?
Answer: 90

Question: What about the “Plant response rating, Barley, Spring” value (barley, spring; 250 g ai/ha) of the same molecule?
Answer: 100

Question: What about the “Plant response rating, Giant Foxtail” value (giant foxtail; [3]) of the same molecule?
Answer: 100

Question: And the “Plant response rating, Giant Foxtail” value (giant foxtail; [4])?
Answer: 100

Question: And the “Plant response rating, Giant Foxtail” value (giant foxtail; [5])?
Answer: 100

Question: And the “Plant response rating, Giant Foxtail” value (giant foxtail; [6])?
Answer: 5

Question: What about the “Plant response rating, Giant Foxtail” value (giant foxtail; [7]) of the same molecule?
Answer: 50

Question: And the “Radish, Wild plant response rating” value (radish, wild; Postemergence, 31 g ai/ha)?
Answer: 40

Question: And the “Radish, Wild plant response rating” value (radish, wild; Postemergence, 125 g ai/ha)?
Answer: 60

Question: What about the “Radish, Wild plant response rating” value (radish, wild; Postemergence, 250 g ai/ha) of the same molecule?
Answer: 75

Question: What about the “Radish, Wild plant response rating” value (radish, wild; postemergence, 62 g ai/ha) of the same molecule?
Answer: 50

Question: What about the “Plant response rating, Lambsquarters” value (lambsquarters [1]; [3]) of the same molecule?
Answer: 100

Question: What about the “Plant response rating, Lambsquarters” value (lambsquarters [1]; [4]) of the same molecule?
Answer: 100

Question: What about the “Plant response rating, Lambsquarters” value (lambsquarters [1]; [5]) of the same molecule?
Answer: 100

Question: What about the “Plant response rating, Lambsquarters” value (lambsquarters [1]; [6]) of the same molecule?
Answer: 50

Question: What about the “Plant response rating, Lambsquarters” value (lambsquarters [1]; [7]) of the same molecule?
Answer: 65

Question: What about the “Plant response rating, Lambsquarters” value (lambsquarters [2]; 31 g ai/ha) of the same molecule?
Answer: 95

Question: And the “Plant response rating, Lambsquarters” value (lambsquarters [2]; 62 g ai/ha)?
Answer: 100

Question: And the “Plant response rating, Lambsquarters” value (lambsquarters [2]; 125 g ai/ha)?
Answer: 100

Question: What about the “Plant response rating, Lambsquarters” value (lambsquarters [2]; 250 g ai/ha) of the same molecule?
Answer: 100

Question: And the “Plant response rating, Pigweed” value (pigweed; 31 g ai/ha)?
Answer: 100

Question: And the “Plant response rating, Pigweed” value (pigweed; 62 g ai/ha)?
Answer: 100

Question: What about the “Plant response rating, Pigweed” value (pigweed; 125 g ai/ha) of the same molecule?
Answer: 100

Question: What about the “Plant response rating, Pigweed” value (pigweed; 250 g ai/ha) of the same molecule?
Answer: 100

Question: And the “Chickweed plant response rating” value (chickweed; Postemergence, 31 g ai/ha)?
Answer: 25

Question: What about the “Chickweed plant response rating” value (chickweed; Postemergence, 125 g ai/ha) of the same molecule?
Answer: 70

Question: What about the “Chickweed plant response rating” value (chickweed; Postemergence, 250 g ai/ha) of the same molecule?
Answer: 80

Question: What about the “Chickweed plant response rating” value (chickweed; postemergence, 62 g ai/ha) of the same molecule?
Answer: 50

Question: What about the “Plant response rating, Field Bindweed” value (field bindweed; [3]) of the same molecule?
Answer: 100

Question: And the “Plant response rating, Field Bindweed” value (field bindweed; [4])?
Answer: 90

Question: And the “Plant response rating, Field Bindweed” value (field bindweed; [5])?
Answer: 95

Question: What about the “Plant response rating, Field Bindweed” value (field bindweed; [6]) of the same molecule?
Answer: 0

Question: And the “Plant response rating, Field Bindweed” value (field bindweed; [7])?
Answer: 0

Question: What does the source list for `CCc1cc(C(=O)NC(C)C)nn1Cc1ccnc(C(F)(F)F)c1` [Compound 103]?
Answer: Plant response rating, Deadnettle (deadnettle; 31 g ai/ha): 5; Plant response rating, Deadnettle (deadnettle; 62 g ai/ha): 15; Plant response rating, Deadnettle (deadnettle; 125 g ai/ha): 30; Plant response rating, Deadnettle (deadnettle; 250 g ai/ha): 30; Plant response rating, Barley, Winter (barley, winter; 31 g ai/ha): 0; Plant response rating, Barley, Winter (barley, winter; 62 g ai/ha): 35; Plant response rating, Barley, Winter (barley, winter; 125 g ai/ha): 60; Plant response rating, Barley, Winter (barley, winter; 250 g ai/ha): 85; Plant response rating, Barley, Spring (barley, spring; 31 g ai/ha): 15; Plant response rating, Barley, Spring (barley, spring; 62 g ai/ha): 35; Plant response rating, Barley, Spring (barley, spring; 125 g ai/ha): 80; Plant response rating, Barley, Spring (barley, spring; 250 g ai/ha): 100; Radish, Wild plant response rating (radish, wild; Postemergence, 31 g ai/ha): 25; Radish, Wild plant response rating (radish, wild; Postemergence, 125 g ai/ha): 50; Radish, Wild plant response rating (radish, wild; Postemergence, 250 g ai/ha): 60; Radish, Wild plant response rating (radish, wild; postemergence, 62 g ai/ha): 35; Plant response rating, Lambsquarters (lambsquarters [2]; 31 g ai/ha): 65; Plant response rating, Lambsquarters (lambsquarters [2]; 62 g ai/ha): 70; Plant response rating, Lambsquarters (lambsquarters [2]; 125 g ai/ha): 100; Plant response rating, Lambsquarters (lambsquarters [2]; 250 g ai/ha): 100; Plant response rating, Pigweed (pigweed; 31 g ai/ha): 100; Plant response rating, Pigweed (pigweed; 62 g ai/ha): 100; Plant response rating, Pigweed (pigweed; 125 g ai/ha): 100; Plant response rating, Pigweed (pigweed; 250 g ai/ha): 100; Chickweed plant response rating (chickweed; Postemergence, 31 g ai/ha): 20; Chickweed plant response rating (chickweed; Postemergence, 125 g ai/ha): 40; Chickweed plant response rating (chickweed; Postemergence, 250 g ai/ha): 70; Chickweed plant response rating (chickweed; postemergence, 62 g ai/ha): 25

From patent US20150105252A1, “SUBSTITUTED PYRAZOLES AS HERBICIDES” (E I DU PONT DE NEMOURS AND COMPANY, priority 2013, published 2015)
